According to article PMC10482914, “Molecular architecture and electron transfer pathway of the Stn family transhydrogenase” (Nature Communications, 2023):

Key:
[1] = target: T1, StnABC complex (FAD / NADP(H) site in StnC) (Sporomusa ovata, UniProt A0A0U1KYI6); experiment: spectrophotometric, […] nm; format: biochemical; settings: 0.5 mM NADP+, 0.25 mM NADH, 30 uM reduced ferredoxin; pH 8, 50 C
T1 construct: gene SpAn4DRAFT_2937; native purification from S. ovata cytoplasm, untagged; tetramer of StnABC heterotrimers (D2); StnC 1172 amino acids; mildly BS3-crosslinked for cryo-EM; with Electron-bifurcating transhydrogenase subunit StnB (HydB / NuoF-like subunit); Electron-bifurcating transhydrogenase subunit StnA (HydC / NuoE-like, thioredoxin-like [2Fe-2S] subunit)
T1 sequence (A0A0U1KYI6 1-1172): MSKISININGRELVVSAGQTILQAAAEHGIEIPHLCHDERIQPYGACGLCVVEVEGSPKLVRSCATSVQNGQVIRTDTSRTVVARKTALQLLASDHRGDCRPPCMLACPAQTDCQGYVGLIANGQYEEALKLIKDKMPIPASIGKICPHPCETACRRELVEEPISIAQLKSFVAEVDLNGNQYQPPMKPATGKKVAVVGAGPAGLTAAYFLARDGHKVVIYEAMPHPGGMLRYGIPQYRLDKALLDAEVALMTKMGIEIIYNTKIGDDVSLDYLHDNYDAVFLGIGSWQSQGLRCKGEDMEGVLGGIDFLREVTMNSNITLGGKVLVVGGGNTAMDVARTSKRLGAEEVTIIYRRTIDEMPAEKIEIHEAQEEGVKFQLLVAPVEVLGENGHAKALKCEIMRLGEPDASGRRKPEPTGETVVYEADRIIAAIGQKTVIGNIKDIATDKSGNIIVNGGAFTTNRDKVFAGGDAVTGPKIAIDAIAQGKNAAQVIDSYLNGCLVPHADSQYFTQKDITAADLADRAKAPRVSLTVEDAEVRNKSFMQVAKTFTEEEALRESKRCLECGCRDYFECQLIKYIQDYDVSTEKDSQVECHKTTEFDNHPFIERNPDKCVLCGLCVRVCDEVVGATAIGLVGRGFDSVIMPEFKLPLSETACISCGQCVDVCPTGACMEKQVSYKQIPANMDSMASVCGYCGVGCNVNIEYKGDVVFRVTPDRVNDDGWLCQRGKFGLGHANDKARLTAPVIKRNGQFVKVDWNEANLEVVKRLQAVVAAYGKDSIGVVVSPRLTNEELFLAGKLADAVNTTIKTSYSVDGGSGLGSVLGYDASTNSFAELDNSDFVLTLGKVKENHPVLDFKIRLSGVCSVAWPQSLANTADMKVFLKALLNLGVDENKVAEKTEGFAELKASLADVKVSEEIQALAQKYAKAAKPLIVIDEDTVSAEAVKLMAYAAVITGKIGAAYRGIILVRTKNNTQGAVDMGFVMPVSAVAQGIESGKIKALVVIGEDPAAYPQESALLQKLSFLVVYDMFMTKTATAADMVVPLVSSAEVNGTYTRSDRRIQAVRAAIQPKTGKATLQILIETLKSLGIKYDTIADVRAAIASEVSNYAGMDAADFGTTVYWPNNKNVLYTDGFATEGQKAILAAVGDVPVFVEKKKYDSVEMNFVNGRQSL
T1 sequence (A0A0U1KYM9 1-584 partner): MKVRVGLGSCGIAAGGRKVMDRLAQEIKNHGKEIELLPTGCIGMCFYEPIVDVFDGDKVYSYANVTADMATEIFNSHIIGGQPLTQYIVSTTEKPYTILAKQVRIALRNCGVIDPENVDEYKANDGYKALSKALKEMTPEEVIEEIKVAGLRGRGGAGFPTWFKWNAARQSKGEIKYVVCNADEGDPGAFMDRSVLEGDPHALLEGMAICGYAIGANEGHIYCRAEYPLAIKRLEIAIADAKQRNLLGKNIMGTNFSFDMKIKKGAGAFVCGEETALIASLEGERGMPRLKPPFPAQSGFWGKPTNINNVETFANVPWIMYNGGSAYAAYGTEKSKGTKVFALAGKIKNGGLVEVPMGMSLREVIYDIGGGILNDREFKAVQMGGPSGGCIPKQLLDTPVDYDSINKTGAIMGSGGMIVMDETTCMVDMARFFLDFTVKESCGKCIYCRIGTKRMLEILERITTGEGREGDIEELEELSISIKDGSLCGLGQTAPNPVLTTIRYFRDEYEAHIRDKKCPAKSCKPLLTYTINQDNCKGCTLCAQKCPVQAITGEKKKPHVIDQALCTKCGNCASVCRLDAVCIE
T1 sequence (A0A0U1KYW8 1-178 partner): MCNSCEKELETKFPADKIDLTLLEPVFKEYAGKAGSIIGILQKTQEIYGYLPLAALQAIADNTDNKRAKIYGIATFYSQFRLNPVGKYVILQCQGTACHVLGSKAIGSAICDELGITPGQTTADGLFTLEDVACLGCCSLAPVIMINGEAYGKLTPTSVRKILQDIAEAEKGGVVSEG

[2] = target: T2, StnABC complex (FMN / NAD(H) site in StnB) (Sporomusa ovata, UniProt A0A0U1KYM9); experiment: spectrophotometric, […] nm; format: biochemical; settings: 0.25 mM NADH, 0.5 mM NADP+, 30 uM reduced ferredoxin; pH 8, 50 C
T2 construct: gene SpAn4DRAFT_2936; same complex as P1, other site; native purification from S. ovata, untagged; tetramer of StnABC heterotrimers; mildly BS3-crosslinked for cryo-EM; with Electron-bifurcating transhydrogenase subunit StnA (HydC / NuoE-like, thioredoxin-like [2Fe-2S] subunit)
T2 sequence (A0A0U1KYM9 1-584): T1 sequence (A0A0U1KYM9 1-584 partner)
T2 sequence (A0A0U1KYW8 1-178 partner): T1 sequence (A0A0U1KYW8 1-178 partner)
T2 sequence (A0A0U1KYI6 1-1172 partner): T1 sequence (A0A0U1KYI6 1-1172)

[3] = target: StnC subunit of the StnABC transhydrogenase complex from Sporomusa ovata (Sporomusa ovata); experiment: cryo-EM structure; single-particle cryo-EM of the natively purified StnABC complex, mildly cross-linked, anoxic; state S1 without added FMN and substrates (3.2 Å) and state S2 with 10 µM FMN, 500 µM NAD+, 30 µM Fd, 500 µM NADPH (3.0 Å); D2 symmetry

NC(=O)c1ccc[n+]([C@@H]2O[C@H](COP(=O)(O)OP(=O)(O)OC[C@H]3O[C@@H](n4cnc5c(N)ncnc54)[C@H](OP(=O)(O)O)[C@@H]3O)[C@@H](O)[C@H]2O)c1 [NADP^+]
spectrophotometric, 340 nm [1]: catalysed the Fdred and NADH-dependent reduction of NADP^+

NC(=O)C1=CN([C@@H]2O[C@H](COP(=O)(O)OP(=O)(O)OC[C@H]3O[C@@H](n4cnc5c(N)ncnc54)[C@H](O)[C@@H]3O)[C@@H](O)[C@H]2O)C=CC1 [NADH]
spectrophotometric, 340 nm [2]: catalysed the Fdred and NADH-dependent reduction of NADP^+

StnC subunit of the StnABC transhydrogenase complex from Sporomusa ovata (natural protein)
stoichiometry N [3]: 4
